# Experiment: not given
# Settings: components of the Model flavor, Table 9; cited from earlier work
row,Structure (SMILES),Log Ko/w
1,CCCCCCCC(=O)OCC [Ethylcaprylate],3.9
2,CC(=O)OCCC(C)C [isoamyl acetate],2.12
3,CCOC(=O)CC [ethyl propionate],1.24

# Same assay, conditions: n-octanol/water distribution coefficient, log10[co/cw]; grouping of flavor substances by difficulty of encapsulation; cited from earlier work
row,Structure (SMILES),logKo/w
1,CCOC(C)=O [ethylacetate],0.75
2,CC(C)CCO [isoamyl alcohol],1.28
3,CCCCCCC1CCC(=O)O1 (stereo not shown) [gamma-decalactone],2.42
4,C=C(C)C1CC=C(C)C(=O)C1 (stereo not shown) [carvone],2.23
5,CCOC(=O)C(C)O (stereo not shown) [ethyl lactate],0.88
6,CCOC(=O)CC [ethyl propionate],1.24
7,C=CC(C)(O)CCC=C(C)C (stereo not shown) [linalool],3.28
8,CCCC(=O)OCC [ethyl butyrate],1.77
9,C=C1CCC2CC1C2(C)C (stereo not drawn) [beta-pinene],4.37
10,"CC(=O)C(C)=O [diacetyl (butanedione), butanedione]",1.33
11,CCCCCC(=O)OCC [ethyl-caproate],2.83

# Same assay, conditions: n-octanol/water distribution coefficient; cited from earlier work
row,Structure (SMILES),logPo/w
1,CC(C)CCO [isoamyl alcohol],1.22
2,CC(=O)OCCC(C)C [isoamyl acetate],2.12
3,CC=O [Acetaldehyde],−0.16
4,CCCC(=O)OCC [ethyl butyrate],1.73

# Experiment: flavor retention of Model-flavor components in alginate capsules, drying with silicon dioxide vs fluidized bed drying
# Assay type: physicochemical
# Settings: 200 g wet capsules dried in fluidized bed dryer at 30° C., 100 m^3 per hour air flow; shell water content 62%
row,Convective Drying: % Retention [%],Structure (SMILES)
1,65,CCCCCCCC(=O)OCC [Ethylcaprylate]
2,60,CC(=O)OCCC(C)C [isoamyl acetate]
3,4,CCOC(=O)CC [ethyl propionate]

row,Structure (SMILES),Convective Drying: % Retention [%]
1,O=Cc1ccccc1 [benzaldehyde],52

# Same assay, conditions: 200 g wet capsules mixed 10 minutes with 100 g silicon dioxide; shell water content 45%
row,"Drying ""water adsorbing"" Substances: % Retention [%]",Structure (SMILES)
1,0,CCCCCCCC(=O)OCC [Ethylcaprylate]
2,95,CC(=O)OCCC(C)C [isoamyl acetate]
3,50,CCOC(=O)CC [ethyl propionate]

row,Structure (SMILES),"Drying ""water adsorbing"" Substances: % Retention [%]"
1,O=Cc1ccccc1 [benzaldehyde],80

# Experiment: flavor retention of Model-flavor components in alginate capsules, short continuous vs long batch gelling (ether extraction, HRGC/MS)
# Assay type: physicochemical
# Settings: wet alginate capsules, 5% calcium chloride, dwell time 1 minute; relative to Model-flavor solution theoretically encapsulated
# Description: 50 g sodium alginate were dissolved in 195 g demineralized water using a high speed kneading mixer of the type Ultra-Turrax. 250 g Model-flavor were dissolved in 750 g neutral oil. The Model flavor was comprised of flavor components, which cover a large spectrum of water/oil solubility as indicated by logKo/w-values, see the following Table 9.
# The two solutions (alginate, flavor) were conveyed to a vibrating two-stream nozzle head with an inner diameter of 150 μm and an outer diameter of 500 μm. The flow rates were adjusted for the flavor solution to 500 g per hour and for the shell solution to 1000 g per hour, the vibration frequency was adjusted to 200 Hz.
# For the preferred short continuous gelling process the formed discrete droplets fell into a pipe reactor, which was filled with 5% calcium chloride, and were so transported, that the dwell time was 1 minute.
# The results of the 1 minute capsule production (corresponding to 8.3 g encapsulated flavor solution) were then dissolved in 200 ml 1% aqueous […] solution. The mixture was then extracted for 4 hours in a perforator with diethyl ether. The diethyl ether extract was analyzed using HRGC/MS. The results were evaluated based on the surface of the GC/MS peaks for the components per gram of encapsulated aroma solution.
# For the batch gelled process the formed discrete droplets fell into a 5% calcium chloride containing reactor with a dwell time of 2 hours. […] The same analytical protocol was carried out as for the short gel time process.
# 10 g Model-flavor solution were dispersed in 200 ml 1% aqueous sodium citrate solution. The mixture was extracted in a perforator for 4 hours with diethyl ether and evaluated as described above.
# The flavor retention for the respective flavor components during the short continuous gelling process and the long gel batch process were calculated on the basis of the amount of the Model-flavor solution which originally flowed through the nozzle system and theoretically was encapsulated, the results are presented in Table 10.
row,"Flavor Retention, Short Gel Time (continuous) [%]",Structure (SMILES)
1,90,CCCCCCCC(=O)OCC [Ethylcaprylate]
2,80,CC(=O)OCCC(C)C [isoamyl acetate]
3,61,CCOC(=O)CC [ethyl propionate]

row,Structure (SMILES),"Flavor Retention, Short Gel Time (continuous) [%]"
1,O=Cc1ccccc1 [benzaldehyde],82

# Same assay, conditions: wet alginate capsules, 5% calcium chloride, dwell time 2 hours; relative to Model-flavor solution theoretically encapsulated
row,"Flavor Retention, Long Gel Time (Batch) [%]",Structure (SMILES)
1,90,CCCCCCCC(=O)OCC [Ethylcaprylate]
2,18.5,CC(=O)OCCC(C)C [isoamyl acetate]
3,0,CCOC(=O)CC [ethyl propionate]

row,Structure (SMILES),"Flavor Retention, Long Gel Time (Batch) [%]"
1,O=Cc1ccccc1 [benzaldehyde],11

# — patent US8088433B2, “Mononuclearly filled microcapsules” (Symrise AG, priority 2001, dated 2012)
